Laboratory results from US6737383B1, “Herbicidal oxadiazolidines” (priority 1999, dated 2004).

Legend:
blackgrass = assay: Test B pre/postemergence blackgrass; format: in vivo, Alopecurus myosuroides
Summary of the method: (§1)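 Herbicidal effect was estimated by eye on a ten-point control scale after plants spent twelve to sixteen days in a greenhouse following soil or foliar treatment. Foliar sprays targeted plants at one to four leaves; all doses were formulated in a non-phytotoxic solvent with surfactant.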

pigweed = assay: Test B pre/postemergence pigweed; format: in vivo, Amaranthus retroflexus
Summary of the method: as §1

velvetleaf = assay: Test B pre/postemergence velvetleaf; format: in vivo, Abutilon theophrasti
Summary of the method: as §1

sugar beet = assay: Test B pre/postemergence sugar beet; format: in vivo, Beta vulgaris
Summary of the method: as §1

cocklebur = assay: Test B pre/postemergence cocklebur; format: in vivo, Xanthium strumarium
Summary of the method: as §1

giant foxtail = assay: Test B pre/postemergence giant foxtail; format: in vivo, Setaria faberii
Summary of the method: as §1

rice = assay: Test B flood test rice; format: in vivo, Oryza sativa
Summary of the method: (§2)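 Plants were grown to the 2-leaf stage before treatment with test chemical, then held in a greenhouse for twelve to sixteen days. Injury was visually rated against untreated controls on a 0–10 scale, where 0 is no effect and 10 is complete control.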

wild oat = assay: Test B pre/postemergence wild oat; format: in vivo, Avena fatua
Summary of the method: as §1

corn = assay: Test B pre/postemergence corn; format: in vivo, Zea mays
Summary of the method: as §1

smallflower flatsedge = assay: Test B flood test smallflower flatsedge; format: in vivo, Cyperus difformis
Summary of the method: as §2

morningglory = assay: Test B pre/postemergence morningglory; format: in vivo, Ipomoea hederacea
Summary of the method: as §1

duck salad = assay: Test B flood test duck salad; format: in vivo, Heteranthera limosa
Summary of the method: as §2

soybean = assay: Test B pre/postemergence soybean; format: in vivo, Glycine max
Summary of the method: as §1

crabgrass = assay: Test B pre/postemergence crabgrass; format: in vivo, Digitaria sanguinalis
Summary of the method: as §1

wheat = assay: Test B pre/postemergence wheat; format: in vivo, Triticum aestivum
Summary of the method: as §1

bamyardgrass = assay: Test B flood test barnyardgrass; format: in vivo, Echinochloa crus-galli
Summary of the method: as §2

purple nutsedge = assay: Test B pre/postemergence purple nutsedge; format: in vivo, Cyperus rotundus
Summary of the method: as §1

bedstraw = assay: Test B pre/postemergence bedstraw; format: in vivo, Galium aparine; settings: Preemergence
Summary of the method: as §1

surinam grass = assay: Test B pre/postemergence surinam grass; format: in vivo, Brachiaria decumbens
Summary of the method: as §1

rape = assay: Test B pre/postemergence rape; format: in vivo, Brassica napus
Summary of the method: as §1

[1] = Postemergence, Rate 62 g/ha, scale of 0 to 10, 0 is no effect, 10 is complete control
[2] = Postemergence, Rate 125 g/ha, scale of 0 to 10 where 0 is no effect and 10 is complete control
[3] = Postemergence, Rate 250 g/ha, scale of 0 to 10, 0 is no effect, 10 is complete control
[4] = Postemergence, Rate 500 g/ha, scale of 0 to 10 where 0 is no effect and 10 is complete control
[5] = Preemergence, Rate 62 g/ha, scale 0 to 10 (0 no effect, 10 complete control)
[6] = Preemergence, Rate 125 g/ha, scale of 0 to 10 where 0 is no effect and 10 is complete control
[7] = Preemergence, Rate 500 g/ha, scale of 0 to 10 where 0 is no effect and 10 is complete control
[8] = Rate 62 g/ha, flood test species, Pre-emergence, visual evaluation after twelve to sixteen days
[9] = Rate 125 g/ha, under heading Pre-emergence, flood test species, visual evaluation after twelve to sixteen days
[10] = Rate 250 g/ha, Pre-emergence (flood test species), scale 0 to 10, 0 is no effect, 10 is complete control
[11] = Rate 500 g/ha, Pre-emergence section of Table B, 0 to 10 scale (0 no effect, 10 complete control)

COC(C)n1c(=O)on(C(=O)N(c2ccc(Cl)cc2)C(C)C)c1=O (stereo not shown) [Compound 592]
1: Morningglory plant response rating (morningglory; [1]) | Plant response rating, Morningglory (morningglory; [2]) | Plant response rating, Soybean (soybean; [2]) | Soybean plant response rating (soybean; [3]) | Plant response rating, Soybean (soybean; [4])
0: Blackgrass plant response rating (blackgrass; [1]) | Plant response rating, Blackgrass (blackgrass; [2]) | Blackgrass plant response rating (blackgrass; [3]) | Plant response rating, Blackgrass (blackgrass; [4]) | Blackgrass plant response rating (blackgrass; [5]) | Blackgrass plant response rating (blackgrass; [6]) | Blackgrass plant response rating (0 to 10 scale) (blackgrass; Preemergence, Rate 250 g/ha) | Blackgrass plant response rating (blackgrass; [7]) | Plant response rating, Redroot pigweed (pigweed; [2]) | Redroot pigweed plant response rating (pigweed; [3]) | Plant response rating, Redroot pigweed (pigweed; [4]) | Redroot pigweed plant response rating (pigweed; [5]) | Redroot pigweed plant response rating (pigweed; [6]) | Plant response rating, Redroot pigweed (pigweed; [7]) | Plant response rating, Velvetleaf (velvetleaf; [2]) | Velvetleaf plant response rating (velvetleaf; [3]) | Plant response rating, Velvetleaf (velvetleaf; [4]) | Velvetleaf plant response rating (velvetleaf; [5]) | Velvetleaf plant response rating (velvetleaf; [6]) | Plant response rating, Velvetleaf (velvetleaf; [7]) | Plant response rating, Sugarbeets (sugar beet; [2]) | Sugarbeets plant response rating (sugar beet; [3]) | Plant response rating, Sugarbeets (sugar beet; [4]) | Sugarbeets plant response rating (sugar beet; [5]) | Sugarbeets plant response rating (sugar beet; [6]) | Plant response rating, Sugarbeets (sugar beet; [7]) | Cocklebur plant response rating (cocklebur; [1]) | Plant response rating, Cocklebur (cocklebur; [2]) | Cocklebur plant response rating (cocklebur; [3]) | Plant response rating, Cocklebur (cocklebur; [4]) | Cocklebur plant response rating (cocklebur; [5]) | Cocklebur plant response rating (cocklebur; [6]) | Cocklebur plant response rating (0 to 10 scale) (cocklebur; Preemergence, Rate 250 g/ha) | Plant response rating, Cocklebur (cocklebur; [7]) | Giant foxtail plant response rating (giant foxtail; [1]) | Plant response rating, Giant foxtail (giant foxtail; [2]) | Giant foxtail plant response rating (giant foxtail; [3]) | Plant response rating, Giant foxtail (giant foxtail; [4]) | Giant foxtail plant response rating (giant foxtail; [5]) | Giant foxtail plant response rating (giant foxtail; [6]) | Plant response rating, Giant foxtail (giant foxtail; [7]) | Plant response rating, Rice (0 to 10 scale, 0 is no effect, 10 is complete control) (rice; [8]) | Rice plant response rating (0 to 10 scale, 0 is no effect, 10 is complete control) (rice; [9]) | Rice plant response rating (rice; [10]) | Rice plant response rating (rice; [11]) | Plant response rating, Wild oats (wild oat; [2]) | Wild oats plant response rating (wild oat; [3]) | Plant response rating, Wild oats (wild oat; [4]) | Wild oats plant response rating (wild oat; [5]) | Wild oats plant response rating (wild oat; [6]) | Plant response rating, Wild oats (wild oat; [7]) | Corn plant response rating (corn; [1]) | Plant response rating, Corn (corn; [2]) | Corn plant response rating (corn; [3]) | Plant response rating, Corn (corn; [4]) | Corn plant response rating (corn; [5]) | Corn plant response rating (corn; [6]) | Corn plant response rating (0 to 10 scale) (corn; Preemergence, Rate 250 g/ha) | Plant response rating, Corn (corn; [7]) | Plant response rating, S. Flatsedge (0 to 10 scale, 0 is no effect, 10 is complete control) (smallflower flatsedge; [8]) | S. Flatsedge plant response rating (0 to 10 scale, 0 is no effect, 10 is complete control) (smallflower flatsedge; [9]) | S. Flatsedge plant response rating (smallflower flatsedge; [10]) | S. Flatsedge plant response rating (smallflower flatsedge; [11]) | Morningglory plant response rating (morningglory; [5]) | Morningglory plant response rating (morningglory; [6]) | Plant response rating, Morningglory (morningglory; [7]) | Plant response rating, Ducksalad (0 to 10 scale, 0 is no effect, 10 is complete control) (duck salad; [8]) | Ducksalad plant response rating (0 to 10 scale, 0 is no effect, 10 is complete control) (duck salad; [9]) | Ducksalad plant response rating (duck salad; [10]) | Ducksalad plant response rating (duck salad; [11]) | Soybean plant response rating (soybean; [5]) | Soybean plant response rating (soybean; [6]) | Plant response rating, Soybean (soybean; [7]) | Crabgrass plant response rating (crabgrass; [1]) | Plant response rating, Crabgrass (crabgrass; [2]) | Crabgrass plant response rating (crabgrass; [3]) | Crabgrass plant response rating (crabgrass; [5]) | Crabgrass plant response rating (crabgrass; [6]) | Plant response rating, Wheat (wheat; [2]) | Wheat plant response rating (wheat; [3]) | Plant response rating, Wheat (wheat; [4]) | Wheat plant response rating (wheat; [5]) | Wheat plant response rating (wheat; [6]) | Plant response rating, Wheat (wheat; [7]) | Plant response rating, Barnyardgrass (0 to 10 scale, 0 is no effect, 10 is complete control) (bamyardgrass; [8]) | Barnyardgrass plant response rating (0 to 10 scale, 0 is no effect, 10 is complete control) (bamyardgrass; [9]) | Barnyardgrass plant response rating (bamyardgrass; [10]) | Barnyardgrass plant response rating (bamyardgrass; [11]) | Nutsedge plant response rating (purple nutsedge; [1]) | Plant response rating, Nutsedge (purple nutsedge; [2]) | Nutsedge plant response rating (purple nutsedge; [3]) | Plant response rating, Nutsedge (purple nutsedge; [4]) | Nutsedge plant response rating (purple nutsedge; [5]) | Nutsedge plant response rating (purple nutsedge; [6]) | Plant response rating, Nutsedge (purple nutsedge; [7]) | Bedstraw plant response rating (bedstraw; Rate 62 g/ha, scale 0 to 10 (0 no effect, 10 complete control)) | Bedstraw plant response rating (bedstraw; Rate 125 g/ha, scale of 0 to 10 where 0 is no effect and 10 is complete control) | B. signalgrass plant response rating (surinam grass; [1]) | Plant response rating, B. signalgrass (surinam grass; [2]) | B. signalgrass plant response rating (surinam grass; [3]) | Plant response rating, B. signalgrass (surinam grass; [4]) | B. signalgrass plant response rating (surinam grass; [5]) | B. signalgrass plant response rating (surinam grass; [6]) | B. signalgrass plant response rating (0 to 10 scale, 0 is no effect, 10 is complete control) (surinam grass; Preemergence, Rate 250 g/ha) | B. signalgrass plant response rating (surinam grass; [7]) | Rape plant response rating (rape; [1]) | Plant response rating, Rape (rape; [2]) | Rape plant response rating (rape; [3]) | Plant response rating, Rape (rape; [4]) | Rape plant response rating (rape; [5]) | Rape plant response rating (rape; [6]) | Plant response rating, Rape (rape; [7])
2: Morningglory plant response rating (morningglory; [3]) | Plant response rating, Morningglory (morningglory; [4]) | Plant response rating, Crabgrass (crabgrass; [4]) | Plant response rating, Crabgrass (crabgrass; [7])
